Read-outs that look alike come from different tables or passages of the source.
Key:
[1] = test system: p-AKT1/2/3-S473 in KPL4 breast tumour cell line; assay: Cellular p-AKT1/2/3-S473 assay; assay type: cell-based; details: KPL4 breast tumour cell line, 2 hours treatment; read-out: pAKT-S743 median IC50
Method in brief: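 KPL4 cells (PIK3CA H1047R, HER2 0/E, hormone independent) were seeded at 60–80% confluency, cultured overnight, then exposed to compound for 2 h at 37 °C. pAKT-S473 and total AKT measured together by MSD Akt Duplex on 20 µg extract; pAKT expressed as % of total AKT, at least duplicate with independent repeats.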

[2] = test system: p-4E-BP1-T70 in KPL4 breast tumour cell line; assay: Cellular p-4E-BP1-T70 assay; assay type: cell-based; details: 2 hours treatment, read-out: P4EBP1-T70 median IC50
Method: The molecular mechanism of action was investigated in a set of experiments to assess the inhibition of the PI3K-AKT-mTOR pathway in responsive cell lines such as KPL4 breast tumour cell line (PIK3CAH1047R, HER20/E and hormone independent). The phospho-substrates of PI3K-AKT-mTOR axis were used as the read-outs to reflect pathway inhibition. Cells were seeded at 60-80% confluency per well in 96-well cell culture plates. After overnight incubation at 37° C. 5% CO2, cells were treated with compounds and vehicle at 37° C. for 2 hours. Thereafter, cells were lysed in 150 μl lysis buffer and the levels of phospho-AKT at T308 and S473 and p-4E-BP1 at T70 sites were determined with the corresponding AlphaScreen® SureFire® assay kits (Perkin Elmer: 4E-BP1 Assay Kit Cat # TRG4E2S10K; Akt 1/2/3 p-Ser 473 #TGRA4S500 and Akt 1/2/3 p-Thr 308 #TGRA3S500 as well as IgG detection Kit #6760617M) as described in the manuals. All measurements where at least done in duplicates and confirmed by independent repetition.

[3] = test system: p-AKT S473 in PC3 human prostate tumours; assay: In vivo xenograft mechanism of action study; design: species or system athymic nude mice; details: Mus musculus, po, PC3 tumours in nude mice, once 50 mg/kg p.o.
From the text: In Vivo Xenograft Mechanism of Action Study
To this extent PC3 human prostate tumours were xenografted onto athymic nude mice. PC3 tumour cells were cultivated according to ATCC protocols in recommended media contained 10% FCS and harvested for transplantation in a subconfluent (70%) state. 3×10^6 tumour cells suspended in 50% Matrigel were subcutaneously implantated into the inguinal region of male mice. Tumours were allowed to grow to the predetermined size of 60-80 mm^2. When the tumours were approximately in size, the animals were randomized to treatment and control groups (groups size: 9 animals) and treatment was started. Animals were treated once with 50 mg/kg compound or vehicle per oral administration (p.o.) carried out via a gastric tube. Treatment of each animal was based on individual body weight. At 2, 5 and 24 hours post treatment 3 animals each were sacrificed and the PC3 tumours excised. Tumour samples of approximately 5×5×5 mm were lysed on ice in MSD lysis buffer in the presence of protease and phosphatase inhibitors using Tissue Lyzer (Qiagen, Germany). The levels of p-AKT S473 in extracts from tumour tissue were analysed in an ELISA based assay. This assay is based on the “Akt Duplex” of the MULTI-SPOT® Assay System (Fa. Meso Scale Discovery, Cat# N41100B-1) following manufacturers instructions. Each assay used 20 μg of protein extract and measured total AKT and p-AKT content simultaneously in one well. All measurements where at least done in duplicates and confirmed by independent repetition.
Values for P-AKT are expressed as percentage of P-AKT level compared to total-AKT content of the extracts. Vehicle treated tumours were analyzed to determine the basal level of P-AKT in this model and used as a normalization control to determine the % P-AKT relative to vehicle levels.

[4] = test system: KPL-4 breast cancer cell line; assay: Tumor cell proliferation assay (CellTiter-Glo, 72 h), KPL-4; assay type: cell-based; details: KPL4, 72h drug exposure
Method in brief: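 KPL-4 cells were treated with compound for 72 h at 37°C. Viability was measured as ATP by CellTiter-Glo luminescence, with a separate t=0 plate read after overnight attachment. A reference compound was run as standard.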

[5] = test system: MCF7; assay: Tumor cell proliferation assay (CellTiter-Glo, 72 h), MCF7; assay type: cell-based; details: Homo sapiens, 72h drug exposure
Method: Compounds were tested in a cell-based assay that measures the capacity of the compounds to inhibit tumour cell proliferation following a 72h drug exposure. Cell viability is determined using CellTiter-Glow® (CTG, Promega, cat# G7571/2/3). The CellTiter-Glo® Luminescent Cell Viability Assay is a homogeneous method to determine the number of viable cells in culture. Detection is based on using the luciferase reaction to measure the amount of ATP from viable cells. The amount of ATP in cells correlates with cell viability. Within minutes after a loss of membrane integrity, cells lose the ability to synthesize ATP, and endogenous ATPases destroy any remaining ATP; thus the levels of ATP fall precipitously.
Cells were plated at 3000-5000 cells/well (depending on the cell lines) in 90 μL growth medium on MTPs (Corning; #3603, black plate, clear flat bottom). For each cell line assayed, cells were plated onto a separate plate for determination of […] at t=0 hour and t=72 hour time points. Following overnight incubation at 37° C., chemiluminescence values for the t=0 samples were determined after adding 10 μl medium and 100 μl CTG solution according to manufacture protocol. Plates for the t=72 hour time points were treated with compounds diluted into growth medium at ten times final concentration added in 10 μL to the cell culture plate. Cells were then incubated for 72 hours at 37° C. Chemiluminescence values for the t=72 hour samples were determined. […] Experiments were controlled using a reference compound as standard.

[6] = molecular target: His-tagged human recombinant kinase full-length Akt1 (Homo sapiens (Human), UniProt P31749); assay: Akt1 kinase assay (TR-FRET); assay type: biochemical; details: 10 μM ATP; read-out: Akt1, median IC50
Method in brief: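 Full-length His-tagged Akt1 (about 0.05 ng/μl final) preincubated 15 min at 22 °C with compound in 50 mM TRIS/HCl pH 7.5, 5 mM MgCl2, 1 mM DTT, 0.02% Triton X-100; biotinylated peptide substrate. Phosphopeptide detected by TR-FRET (Eu-chelate antibody to streptavidin-XL665) after 1 h at 22 °C.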

[7] = 2 hours post treatment, read-out: P-AKT % relative to control at 2 hours
[8] = 5 hours post treatment, read-out: P-AKT % relative to control at 5 hours

Sequence of His-tagged human recombinant kinase full-length Akt1 (P31749 whole entry): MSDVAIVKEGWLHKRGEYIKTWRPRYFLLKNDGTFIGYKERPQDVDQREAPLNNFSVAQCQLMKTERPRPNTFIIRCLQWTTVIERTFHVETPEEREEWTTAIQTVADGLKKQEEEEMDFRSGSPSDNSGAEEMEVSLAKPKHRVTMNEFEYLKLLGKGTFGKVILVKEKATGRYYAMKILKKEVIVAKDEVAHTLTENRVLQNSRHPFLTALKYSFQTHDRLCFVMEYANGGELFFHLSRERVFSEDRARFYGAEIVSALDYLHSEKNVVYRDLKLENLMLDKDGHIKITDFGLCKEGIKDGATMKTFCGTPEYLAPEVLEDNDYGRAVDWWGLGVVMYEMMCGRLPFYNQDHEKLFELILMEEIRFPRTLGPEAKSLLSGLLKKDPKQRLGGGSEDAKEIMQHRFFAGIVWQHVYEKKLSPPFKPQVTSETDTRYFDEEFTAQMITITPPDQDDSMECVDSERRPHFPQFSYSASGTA

Row | Compound | IC50 [1] | IC50 [2] | response vs control in vivo at 50 mg/kg [3, 7] | response vs control in vivo at 50 mg/kg [3, 8] | IC50 [4] | IC50 [5] | IC50 [6]
1 | NC1(c2ccc(-c3nc4ccc(Cl)cn4c3-c3ccccc3)cc2)CCC1 [Example 2-140] | 115 nM | 2660 nM | 26% | 18% | 1900 nM | 500 nM | 
2 | Cc1cc(-c2ccn[nH]2)c2nc(-c3ccc(C4(N)CCC4)cc3)c(-c3ccccc3)n2c1 [Example 2-92] | 1400 nM | 1570 nM | 34.6% | 22% | 4300 nM | 4300 nM | 229 nM
3 | NC(=O)c1ccn2c(-c3ccccc3)c(-c3ccc(C4(N)CCC4)cc3)nc2c1 [Example 2-41] | 33 nM |  | 10.2% | 8.8% | 600 nM |  | 
4 | COc1cc(Cl)cn2c(-c3ccccc3)c(-c3ccc(C4(N)CCC4)cc3)nc12 [Example 2-145] | 105 nM | 1210 nM | 33% | 38% | 1000 nM | 300 nM | 24 nM
5 | NC(=O)c1ccc2nc(-c3ccc(C4(N)CCC4)cc3)c(-c3ccccc3)n2c1 [Example 2-18] | 33 nM |  | 8% | 7.7% | 500 nM |  | 
6 | COc1cc(OC)c2nc(-c3ccc(C4(N)CCC4)cc3)c(-c3ccccc3)n2c1 [Example 2-146] | 43 nM | 636 nM | 17.5% | 22.3% | 700 nM | 600 nM | 
7 | COc1cc(Br)cn2c(-c3ccccc3)c(-c3ccc(C4(N)CCC4)cc3)nc12 [Example 2-52] | 49 nM |  | 34.9% | 47.9% | 1500 nM | 1100 nM | 19 nM
8 | NC1(c2ccc(-c3nc4cc(-c5ncc[nH]5)ccn4c3-c3ccccc3)cc2)CCC1 [Example 2-114] | 25 nM |  | 47% | 57.2% | 800 nM | 700 nM | 71 nM
9 | Cc1c(Cl)cn2c(-c3ccccc3)c(-c3ccc(C4(N)CCC4)cc3)nc2c1Br [Example 2-81] | 1100 nM | 3480 nM | 33.6% | 69.6% | 1800 nM | 1700 nM | 
10 | COc1cc(-c2ncc[nH]2)cn2c(-c3ccccc3)c(-c3ccc(C4(N)CCC4)cc3)nc12 [Example 2-149] | 576 nM | 1960 nM |  |  | 2900 nM | 1800 nM | 198 nM
11 | Cc1cc(-c2cccnc2)c2nc(-c3ccc(C4(N)CCC4)cc3)c(-c3ccccc3)n2c1 [Example 2-90] | 337 nM | 1560 nM | 51.6% | 53.7% | 1900 nM | 1700 nM | 
12 | NC1(c2ccc(-c3nc4ncc(-c5ccccc5)cn4c3-c3ccccc3)cc2)CCC1 [Example 1-9] | 770 nM |  | 32.2% | 21.1% | 2000 nM |  | 
13 | NC1(c2ccc(-c3nc4c(Br)cc(Cl)cn4c3-c3ccccc3)cc2)CCC1 [Example 2-85] | 161 nM | 1800 nM |  |  | 1900 nM | 1400 nM | 5 nM
14 | Cc1cc(-c2cn[nH]c2)c2nc(-c3ccc(C4(N)CCC4)cc3)c(-c3ccccc3)n2c1 [Example 2-93] | 528 nM | 1420 nM | 46% | 79.2% | 2000 nM | 1800 nM | 
15 | CC(=O)Nc1ccc2nc(-c3ccc(C4(N)CCC4)cc3)c(-c3ccccc3)n2c1 [Example 2-156] | 190 nM | 1210 nM |  |  | 900 nM | 500 nM | 62 nM
16 | Cc1cc(-c2cn[nH]c2)cn2c(-c3ccccc3)c(-c3ccc(C4(N)CCC4)cc3)nc12 [Example 2-102] | 33 nM | 158 nM |  |  | 1900 nM | 1900 nM | 106 nM
17 | Cc1c(C(N)=O)cn2c(-c3ccccc3)c(-c3ccc(C4(N)CCC4)cc3)nc2c1C [Example 2-100] | 67 nM | 54 nM |  |  | 900 nM | 1200 nM | 201 nM
18 | Cc1cc(C)c2nc(-c3ccc(C4(N)CCC4)cc3)c(-c3ccccc3)n2c1 [Example 2-73] | 235 nM | 3980 nM | 9.1% | 9.3% | 1800 nM | 1700 nM | 
19 | COc1ccn2c(-c3ccccc3)c(-c3ccc(C4(N)CCC4)cc3)nc2n1 [Example 2-00, 1-[4-(7-methoxy-3-phenyl-imidazo[1,2-a]pyrimidin-2-yl)-phenyl]-cyclobutylamine] |  |  | 4.7% | 6.3% |  |  | 
20 | Cc1cc(-c2ccn[nH]2)cn2c(-c3ccccc3)c(-c3ccc(C4(N)CCC4)cc3)nc12 [Example 2-103] | 230 nM | 719 nM |  |  | 200 nM | 200 nM | 99 nM
21 | Cc1cc(-c2cc(C)c3nc(-c4ccc(C5(N)CCC5)cc4)c(-c4ccccc4)n3c2)[nH]n1 [Example 2-105] | 669 nM | 573 nM |  |  | 2200 nM | 1800 nM | 217 nM
22 | Cc1cc(C(N)=O)cn2c(-c3ccccc3)c(-c3ccc(C4(N)CCC4)cc3)nc12 [Example 2-101] | 19 nM | 89 nM |  |  | 300 nM | 300 nM | 14 nM

Source: patent publication US8975265B2, “Substituted imidazo[1,2-a]pyrimidines and —pyridines” (Bayer Intellectual Property GmbH, priority 2010, dated 2015)
